Test results from EP0647632A1, “NOVEL BENZ[…]” (YAMANOUCHI PHARMACEUTICAL CO. LTD., priority 1992, dated 1994).

Tests used:
[1] = tested on: Gastric Acid Secretion Stimulated by Pentagastrin; assay: Inhibition of pentagastrin-stimulated gastric acid secretion in anesthetized rats with perfused stomach, intravenous administration; format: in vivo, SD species rats; settings: SD rats, urethane anesthesia, pentagastrin 15 µg/kg/hour i.v., test drug intravenous, dose 0.1 µmol/kg
Source text: (i) Method of Measurement: A cannula was inserted into a trachea of rats anesthetized with urethane (1.25 g/kg intraperitoneal administration) and abdomen was incised to expose stomach and duodenum. After ligating the cardiac portion, a polyethylene cannula was set in the forestomach portion. Further, a small incision was given to the duodenum, and a polyethylene cannula was inserted from the incised portion to a direction of the stomach inside. In order to fix the cannula, the pylorus portion was ligated. A physiological saline (adjusted to pH 7.0) was perfused from forestomach portion to the pylorus portion at a rate of 3 ml/minute. The gastric acid secretion was measured by continuously titrating the perfusate by means of a pH-stat (AUT-201, produced by Toa Electronics Ltd.). The continuous titration was performed by titrating with a 25 mM sodium hydroxide solution using a titration end point of pH 7.0. The results were determined as a gastric acid analysis at 10 minutes intervals (µEq/10 minutes). Then, pentagastrin was intravenously administered (15 µg/kg/hour). After injection of pentagastrin, the acid secretion was increased, and 60 minutes after the injection, the acid secretion reached to its maximum value and stabilized. Thereafter, a test drug was intravenously administered, and the gastric acid secretion was measured. From the gastric acid secretion amount after the test drug injection, a gastric acid secretion inhibitory ratio was calculated by taking the maximum value after the pentagastrin injection as 100%. In this test, two species of rats, i.e., Wistar species rats and SD species rats, were used as test animals, but the embodiments obtained by using the SD species rats are described below. The compounds of the present invention show from 9 to 89% gastric acid secretion inhibitory effects by the administration at a dose of 0.1 µmol/kg. The embodiments are shown below.

[2] = molecular target: T1, CCK-B receptor (Rattus norvegicus, UniProt P30553); assay: Binding activity to CCK-B receptor: displacement of [125I]BH.CCK-8 from rat whole brain membrane sample; parameters: species or system SD rats; settings: rat brain membranes, [125I]BH.CCK-8, 25°C, 120 minutes; read-out: CCK-B Binding IC₅₀
T1 construct: freezed at -80°C for storage as a membrane sample; from tissue; host or cells: SD rat whole brain membrane preparation
T1 sequence (P30553 1-452): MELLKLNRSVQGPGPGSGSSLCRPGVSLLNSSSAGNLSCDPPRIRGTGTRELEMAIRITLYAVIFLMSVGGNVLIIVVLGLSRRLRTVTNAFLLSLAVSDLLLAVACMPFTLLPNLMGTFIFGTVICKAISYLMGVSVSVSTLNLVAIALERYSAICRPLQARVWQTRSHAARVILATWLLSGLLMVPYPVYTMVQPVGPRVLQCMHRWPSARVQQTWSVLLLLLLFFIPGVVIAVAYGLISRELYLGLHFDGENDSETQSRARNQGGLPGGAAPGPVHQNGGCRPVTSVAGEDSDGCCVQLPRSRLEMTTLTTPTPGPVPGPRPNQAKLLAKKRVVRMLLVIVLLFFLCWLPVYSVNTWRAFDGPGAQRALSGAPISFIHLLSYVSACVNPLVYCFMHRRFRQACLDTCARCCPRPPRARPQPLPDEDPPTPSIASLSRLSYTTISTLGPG
Procedure: About 100 conscious SD rats were sacrificed by decapitation, and immediately thereafter the whole brain was extracted. The whole brain was homogenized using a Teflon-glass homogenizer in a 0.32M sucrose aqueous solution in a volume of 10 times the whole brain. The resulting homogenate was centrifuged in a cooled centrifugator at 900 × g for 10 minutes, and the supernatant was further centrifuged at 11,500 × g for 15 minutes. The resulting sediment was suspended in a 0.08% Triton X-100 and a 50 mM Tris-HCl buffering solution (pH 7.4). After allowing the suspension to stand for 30 minutes, the suspension was again centrifuged at 11,500 × g for 15 minutes, and the sediment was washed twice with each of 5 mM and 50 mM Tris-HCl buffers by centrifuging operations. The resulting sediment was suspended in a 50 mM Tris-HCl buffer, and freezed at -80°C for storage as a membrane sample.
After thawing the membrane sample at room temperature, it was diluted with a 10 mM HEPES buffer (130 mM NaCl, 5 mM MgCl₂·1mM EGTA, 0.25 mg/ml bacitracin, pH 6.5) and, after incubating at 25°C for 120 minutes in the presence of [¹²⁵I]BH.CCK-8, B/F separation was performed by suction filtration. The non-specific binding was determined in the presence of 1 µM of CCK-8. The amount of the labelled ligand bonded to the receptor was measured by a γ-counter. A Ki (CCK-B) value was determined from a displacement curve of the test compound by taking the maximum binding amount of the labelled ligand to the receptor as 100%.

[3] = tested on: Gastric Acid Secretion Stimulated by Pentagastrin; assay: Inhibition of pentagastrin-stimulated gastric acid secretion in Heidenhain pouch dogs, oral administration; format: in vivo, beagle dogs; settings: pentagastrin 8 µg/kg/hr infusion, test drug oral
Source text: (ii) Method of Measurement: Male beagle dogs (7 to 12 kg) fasted overnight was used and subjected to peritoneotomy under GOF anesthesia. After amputating the corpus ventriculi portion parallel to the curvatura ventriculi major, a metal pouch was retained in the suture-closed epigastric region to prepare Heidenhain pouch dogs. The dogs under healthy conditions after two months from the operation were presented to the experiments. Each of the pouch dogs was used at one week intervals.
Pentagastrin was continuously infused (8 µg/kg/hr) into 3 to 5 Heidenhain pouch dogs fasted for 18 hours, and the gastric juice naturally dropped from the pouch was collected at a 15 minute interval. The acid concentration in the gastric juice was calculated from the amount of a 0.05N NaOH required for titrating up to pH of 7.0 using an automatic titration apparatus (Comtite-7, produced by Hiranuma Sangyo), and the product with the amount of the gastric juice was referred to as an acid secretion amount.
Three hours after commencement of the continuous infusion of pentagastrin, a test drug was orally administered, and an inhibitory ratio to the gastric acid secretion at 15 minute intervals was determined to evaluate the effects of the drug.

Compound	Gastric Acid Secretion Inhibitory Ratio/Dose [1]	IC50 [2] [pM]	Gastric Acid Secretion Inhibitory Ratio/Dose ([3]; dose 10 µmol/kg)	Gastric Acid Secretion Inhibitory Ratio/Dose ([3]; dose 1 µmol/kg)
Cc1ccc(C(=O)CN2C(=O)C(NC(=O)Nc3cccc(N(C)C)c3)N=C(c3ccccc3)c3ccccc32)cc1 (single isomer, unassigned; (+)) [Example 21, (+)-1-[2,3-Dihydro-1-(4'-methylphenacyl)-2-oxo-5-phenyl-1H-1,4-benzodiazepin-3-yl]-3-(3-dimethylaminophenyl)urea]	74% (0.1 µmol/kg)	160	90% (10 µmol/kg)	–
Cc1ccccc1C(=O)CN1C(=O)[C@H](NC(=O)Nc2cccc(N(C)C)c2)N=C(c2ccccc2)c2ccccc21 [Example 3, (R)-1-[2,3-dihydro-1-(2'-methylphenacyl)-2-oxo-5-phenyl-1H-1,4-benzodiazepin-3-yl]-3-(3-dimethylaminophenyl)urea]	63% (0.1 µmol/kg)	170	57% (10 µmol/kg)	–
Cc1ccc(C(=O)CN2C(=O)C(NC(=O)Nc3cccc(N(C)C)c3)N=C(c3ccccn3)c3ccccc32)cc1 (stereo not drawn) [Example 35, 1-[2,3-dihydro-1-(4'-methylphenacyl)-2-oxo-5-(2-pyridyl)-1H-1,4-benzodiazepin-3-yl]-3-(3-dimethylaminophenyl)urea]	76% (0.1 µmol/kg)	2140	–	83% (1 µmol/kg)
